Patent US9845295B2, “Triphenylethylene compounds and uses thereof” (Purdue Research Foundation, priority 2015, dated 2017)
Blank lines part the entries; values can stand above or below the compound they belong to.

Legend:
[1] = test system: progesterone receptor (PGR) mRNA expression in MCF-7 human breast cancer cells; experiment: Antagonism of β-estradiol-stimulated progesterone receptor (PGR) mRNA expression in MCF-7 cells; assay type: cell-based; settings: 1 μM compound, 24 h, 10 nM E2 alone set as 100%
Protocol: To investigate the effects of ligand binding on ER-mediated transcriptional activities, the triphenylethylene bisphenols were tested for their abilities to antagonize β-estradiol (E2) in a functional assay. […] In this commonly used assay, the progesterone receptor (PGR) mRNA expression is used for assessing estrogenic or antiestrogenic activity in MCF-7 human breast cancer cells. […] The PGR mRNA expression level with 10 nM E2 stimulation alone was set as 100%, and the antiestrogenic effects of the compounds was monitored by the reduction of β-estradiol-stimulated mRNA levels.
Cell Culture and Test Compound Treatment. […]
The MCF-7 cells treated with test compounds or experimental controls for 24 h were harvested for progesterone receptor (PGR) messenger ribonucleic acid (mRNA) extraction. […] The RNA concentration was measured using the Qubit RNA BR assay (Life Technologies Corp., Carlsbad, Calif.) for the Qubit 2.0 fluorometer (Life Technologies Corp., Carlsbad, Calif.). […]
Complementary deoxyribonucleic acid (cDNA) for the real-time quantitative polymerase chain reaction (PCR) assay was synthesized from DNase-treated total RNA using the QuantiTect reverse transcription kit (QiagenInc., Valencia, Calif., USA).
Real-Time Quantitative Polymerase Chain Reaction (PCR) for cDNA. […]

recombinant human ER-β = biological target: T1, recombinant human ER-β (Homo sapiens, UniProt Q92731); experiment: Binding affinity for recombinant human ER-β (fluorescence polarization, ES2 displacement); settings: Table 1; determined only for compounds with >90% competition
T1 construct: purchased Invitrogen (Carlsbad, Calif.)
T1 sequence (Q92731 whole entry): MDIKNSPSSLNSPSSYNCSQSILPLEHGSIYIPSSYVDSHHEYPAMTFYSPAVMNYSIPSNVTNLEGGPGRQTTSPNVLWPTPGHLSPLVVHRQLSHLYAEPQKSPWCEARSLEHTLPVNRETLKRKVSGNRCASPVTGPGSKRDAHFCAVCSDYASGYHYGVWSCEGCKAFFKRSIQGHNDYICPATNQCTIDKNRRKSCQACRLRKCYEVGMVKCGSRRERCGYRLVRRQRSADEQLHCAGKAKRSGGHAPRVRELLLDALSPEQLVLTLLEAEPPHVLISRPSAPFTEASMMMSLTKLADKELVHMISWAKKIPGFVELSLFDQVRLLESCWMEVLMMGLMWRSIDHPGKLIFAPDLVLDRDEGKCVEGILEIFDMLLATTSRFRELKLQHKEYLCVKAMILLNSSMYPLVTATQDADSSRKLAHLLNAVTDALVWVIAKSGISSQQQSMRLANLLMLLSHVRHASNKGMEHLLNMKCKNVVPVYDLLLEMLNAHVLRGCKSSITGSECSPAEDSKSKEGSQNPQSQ
Protocol: (§1) Binding Affinities for Recombinant Human ER-α and ER-β.
(§2) The binding affinities of ER-α and ER-β were determined by measuring the change of polarization value when the fluorescent estrogen ligand, ES2, was displaced by the tested compounds. Experimental procedures were consistent with the protocol provided by Invitrogen. The fluorescent estrogen ligand, ES2, was provided in methanol/water (4:1, v/v) with the concentration of 1800 nM. Recombinant human ER-α and ER-β were provided in buffer (50 mM bis-tris propane, 400 mM KCl, 2 mM DTT, 1 mM EDTA and 10% glycerol), with the concentration of 734 nM and 3800 nM, respectively. All tested samples were dissolved in either methanol or DMSO. The sample solutions (1 pt) were mixed well with 49 pt of ES2 screening buffer (100 mM potassium phosphate, 100 μg/mL BGG and 0.02% NaN3). The ER-α/ES2 complex was prepared with the fluorescent estrogen ligand ES2, human recombinant ER and ES2 screening buffer with the concentrations of 9 nM ES2 and 30 nM ER-α. The ER-β/ES2 complex was prepared with the fluorescent estrogen ligand ES2, human recombinant ER-β and ES2 screening buffer with the concentrations of 9 nM ES2 and 20 nM ER-ft Reactions were initiated by adding ER/ES2 complex (50 μL) to bring the incubation volume to 100 μL and incubated for 2 h avoiding light. […] Excitation-emission wavelengths for fluorescence polarization were […]. The polarization values in the presence of the test competitors were compared with those in control, in which the competitor was replaced with vehicle. The extent of competition was expressed as the percentage of remaining polarization compared to the control.

recombinant human ER-α = biological target: T2, recombinant human ER-α (Homo sapiens, UniProt P03372); experiment: Binding affinity for recombinant human ER-α (fluorescence polarization, ES2 displacement)
T2 construct: purchased Invitrogen (Carlsbad, Calif.)
T2 sequence (P03372 1-595): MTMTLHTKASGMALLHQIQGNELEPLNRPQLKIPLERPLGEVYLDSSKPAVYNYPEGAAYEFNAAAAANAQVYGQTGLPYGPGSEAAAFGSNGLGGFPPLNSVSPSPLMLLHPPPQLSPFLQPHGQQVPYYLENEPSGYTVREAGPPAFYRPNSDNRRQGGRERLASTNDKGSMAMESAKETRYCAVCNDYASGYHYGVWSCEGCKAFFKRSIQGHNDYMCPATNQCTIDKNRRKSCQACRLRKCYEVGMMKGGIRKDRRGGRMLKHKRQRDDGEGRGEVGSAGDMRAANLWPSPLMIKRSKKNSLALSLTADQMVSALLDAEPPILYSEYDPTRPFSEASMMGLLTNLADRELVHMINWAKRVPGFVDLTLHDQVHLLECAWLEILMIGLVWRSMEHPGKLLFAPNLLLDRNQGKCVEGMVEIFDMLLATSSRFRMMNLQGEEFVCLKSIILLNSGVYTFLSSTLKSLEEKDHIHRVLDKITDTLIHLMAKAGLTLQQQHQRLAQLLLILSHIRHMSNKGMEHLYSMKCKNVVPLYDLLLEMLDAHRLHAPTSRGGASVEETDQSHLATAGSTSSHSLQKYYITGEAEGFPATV
Protocol: as §1, §2

ER in MCF-7-2a cells = settings: in words; cited from earlier work
[2] = biological target: T3, recombinant human aromatase (CYP19) (Homo sapiens, UniProt P11511); experiment: Inhibition of recombinant human aromatase (CYP19) by microsomal incubations (MFC fluorometric substrate); assay type: biochemical
T3 construct: purchased BD Biosciences (San Jose, Calif.)
T3 sequence (P11511 1-503): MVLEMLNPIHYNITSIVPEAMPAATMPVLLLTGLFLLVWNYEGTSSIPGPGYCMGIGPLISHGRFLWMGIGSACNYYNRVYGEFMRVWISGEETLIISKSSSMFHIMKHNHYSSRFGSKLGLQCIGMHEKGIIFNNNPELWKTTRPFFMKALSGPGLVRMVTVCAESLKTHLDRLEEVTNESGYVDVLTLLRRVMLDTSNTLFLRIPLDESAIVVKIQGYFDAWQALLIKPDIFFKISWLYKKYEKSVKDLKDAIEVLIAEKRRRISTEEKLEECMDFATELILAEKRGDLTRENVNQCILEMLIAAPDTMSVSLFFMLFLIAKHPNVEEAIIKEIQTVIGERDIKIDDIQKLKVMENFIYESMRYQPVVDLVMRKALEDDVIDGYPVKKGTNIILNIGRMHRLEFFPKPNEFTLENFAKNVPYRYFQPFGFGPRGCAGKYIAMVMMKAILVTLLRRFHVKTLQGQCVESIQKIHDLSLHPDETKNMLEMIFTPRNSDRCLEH
Protocol: Inhibition of Recombinant Human Aromatase (CYP19) by Microsomal Incubations.
All tested samples were dissolved in either methanol or DMSO. […] All the reactions were stopped by adding 0.1 M tris base dissolved in acetonitrile (75 μL). […] The extent of enzyme inhibition was expressed as the percentage of remaining enzyme activity compared to the control.

[3] = test system: postmenopausal women with breast cancer; settings: five-year ATAC trial; cited from earlier work
[4] = Table 1, mean of at least three experiments

SMILES: CC/C(=C(\c1ccc(O)cc1)c1ccc(OCCN)cc1)c1ccccc1 [(E,Z)-norendoxifen]
PGR mRNA expression level in the presence of 10 nM E2 [1]: 33%

SMILES: N#CCC(=C(c1ccc(O)cc1)c1ccc(O)cc1)c1ccc(N)cc1 [Compound 25, 3-(4-Aminophenyl)-4,4-bis(4-hydroxyphenyl)but-3-enenitrile]
ER-α percent competition (recombinant human ER-α; Table 1, at 100 μM compound): 0% competition
melting point: 235 to 238 °C
IC50 [2, 4]: 36.3 ± 0.8 nM

SMILES: CC/C(=C(\c1ccc(O)cc1)c1ccc(OCCNC)cc1)c1ccccc1 [Endoxifen]
PGR mRNA expression level in the presence of 10 nM E2 [1]: 10%

SMILES: CC(C)(C#N)c1cc(Cn2cncn2)cc(C(C)(C)C#N)c1 [anastrozole]
improvement of disease-free survival compared to tamoxifen [3]: 13%
reduction in occurrence of contralateral breast cancer compared to tamoxifen [3]: 42%
reduction in risk of distant metastasis compared to tamoxifen [3]: 16%
reduction in the rate of recurrence compared to tamoxifen [3]: 21%

More lines, main results first:

EC50 (recombinant human ER-β): 307 ± 106 nM
ER-α percent competition (recombinant human ER-α; Table 2, at 100000 nM compound): 80% competition
IC50 ([2]; Table 2, determined for compounds with inhibition higher than 90%): 24900 ± 1400 nM
SMILES: CCC(=C(c1ccc(O)cc1)c1ccc(O)cc1)c1ccccc1 [Compound 7, reference compound]
ER antagonism / agonism in MCF-7-2a cells (ER in MCF-7-2a cells): good ER antagonist without significant agonistic side effects

EC50 (recombinant human ER-β): 40.9 nM
EC50 (recombinant human ER-α; Table 1, determined only for compounds with >90% competition): 27.3 nM
melting point: 225 to 227 °C
IC50 [2, 4]: 4.77 ± 0.38 nM
fold improvement/increase in aromatase inhibitory activity compared with 7 ([2]; vs compound 7): > 5000 fold
SMILES: Oc1ccc(C(=C(Cn2ccnc2)c2ccccc2)c2ccc(O)cc2)cc1 [Compound 12, 4,4′-(3-(1H-Imidazol-1-yl)-2-phenylprop-1-ene-1,1-diyl)diphenol]
